According to ChEMBL document CHEMBL1201862, “PubChem BioAssay data set” (2004):
Activity calls are given as the source filed them. Cut-off read from the data, not from the text of the source, for most assays here: actives have a measured EC50 and inactives only a lower limit.

What was measured:
[1] = Luminescence Cell-Based Dose Confirmation HTS to Identify Activators of 5'UTR Stem-Loop Driven Alpha-Synuclein mRNA Translation in H4 Neuroglioblastoma Cells. [Related pubchem assays: 1829 (Project Summary), 1814 (Primary HTS)]; format: functional
[2] = Luminescence Cell-Based Dose Response HTS to Identify Activators of Luciferase Translation or Activity in H4 […] Cells. [Related pubchem assays: 1829 (Project Summary), 1814 (Primary HTS)]; format: functional
[3] = system: H4; test: Luminescence Cell-Based Dose Response HTS to Identify Activators of 5'UTR Stem-Loop Driven Prion Protein mRNA Translation in H4 Neuroglioblastoma Cells. [Related pubchem assays: 1829 (Project Summary), 1814 (Primary HTS)]; format: functional; settings: Homo sapiens
[4] = biological target: T1, Corticotropin-releasing factor receptor 2/Corticotropin-releasing factor-binding protein (Homo sapiens, UniProt P24387+Q13324); test: Dose Response confirmation of uHTS hits for small molecule antagonists of the CRF-binding protein and CRF-R2 receptor complex.; format: functional; settings: read-out: IC50_Mean
T1 sequence (Q13324 whole entry): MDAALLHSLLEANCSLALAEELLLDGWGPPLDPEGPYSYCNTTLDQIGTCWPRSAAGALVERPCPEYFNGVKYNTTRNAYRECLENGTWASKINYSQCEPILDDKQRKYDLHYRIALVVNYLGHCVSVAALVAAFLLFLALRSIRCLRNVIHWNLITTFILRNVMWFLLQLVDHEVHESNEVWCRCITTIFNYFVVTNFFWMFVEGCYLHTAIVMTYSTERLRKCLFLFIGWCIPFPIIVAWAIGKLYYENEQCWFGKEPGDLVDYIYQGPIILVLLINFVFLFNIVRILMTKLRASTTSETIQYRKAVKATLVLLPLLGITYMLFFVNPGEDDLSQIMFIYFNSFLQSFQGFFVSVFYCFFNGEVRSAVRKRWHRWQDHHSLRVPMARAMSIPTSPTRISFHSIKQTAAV
T1 sequence (P24387 whole entry): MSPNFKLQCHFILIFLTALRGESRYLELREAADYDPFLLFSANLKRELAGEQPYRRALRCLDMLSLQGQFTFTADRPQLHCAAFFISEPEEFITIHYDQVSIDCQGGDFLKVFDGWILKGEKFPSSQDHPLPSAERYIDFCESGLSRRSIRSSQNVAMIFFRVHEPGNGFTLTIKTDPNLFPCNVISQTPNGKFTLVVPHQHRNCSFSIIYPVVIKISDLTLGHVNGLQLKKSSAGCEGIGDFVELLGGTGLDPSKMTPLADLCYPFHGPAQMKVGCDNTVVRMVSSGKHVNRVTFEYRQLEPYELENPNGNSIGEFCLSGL

[5] = biological target: T1, Corticotropin-releasing factor receptor 2/Corticotropin-releasing factor-binding protein; test: activators of CRF receptor 2 with binding protein – uHTS hits, confirmation (AID 602473); format: functional; settings: read-out: EC50_Mean
[6] = Luminescence Cell-Based Dose Retest to Confirm Inhibitors of Cancer Stem Cells. [Related pubchem assays (depositor defined):AID2717, AID2721]; format: functional; settings: Homo sapiens
[7] = inhibitors of intracellular T. cruzi replication, confirmation, NIH3T3 host cells, beta-gal luminescence (AID 2044); format: functional, cell-based;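 note: intracellular parasites grown in NIH/3T3 mouse fibroblasts as host cells; luminescent beta-galactosidase reporter signal from transgenic T. cruzi replicating inside host cells; inhibitors lower the luminescence signal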
[8] = cytotoxicity toward NIH3T3 fibroblasts, dose response, counter-screen, cell-based, ATP luminescence, mouse fibroblasts (AID 2010); format: functional;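 note: cells exposed to compound for about 90 hours before reading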
[9] = biological target: Cytochrome P450 3A4 (Homo sapiens, UniProt P08684);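 note: CYP3A4 tested as one member of a cytochrome P450 panel screen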
Chain of Cytochrome P450 3A4 (P08684 whole entry): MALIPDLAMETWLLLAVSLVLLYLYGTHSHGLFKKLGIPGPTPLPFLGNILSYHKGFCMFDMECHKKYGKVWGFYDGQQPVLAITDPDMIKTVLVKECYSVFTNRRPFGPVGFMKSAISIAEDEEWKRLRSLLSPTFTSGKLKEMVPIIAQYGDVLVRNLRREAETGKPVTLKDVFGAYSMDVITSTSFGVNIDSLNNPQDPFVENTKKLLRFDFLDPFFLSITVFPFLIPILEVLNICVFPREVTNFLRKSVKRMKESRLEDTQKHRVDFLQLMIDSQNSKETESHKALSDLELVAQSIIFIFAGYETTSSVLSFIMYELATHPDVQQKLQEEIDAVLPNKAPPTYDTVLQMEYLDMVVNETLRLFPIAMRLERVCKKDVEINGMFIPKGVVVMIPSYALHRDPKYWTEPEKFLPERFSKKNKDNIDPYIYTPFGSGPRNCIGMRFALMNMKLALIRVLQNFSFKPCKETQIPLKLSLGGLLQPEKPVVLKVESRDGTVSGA

Compound | EC50 [1] | EC50 [2] | EC50 [3] | IC50 [4] | EC50 [5] | other results
CC(C)(C)c1ccc(C(=O)NCCN2CCOCC2)cc1 | 12.5 µM (active) | 11.8 µM (active) | 18.3 µM (active) | – | – | –
O=C(C1CCCN1S(=O)(=O)c1cccc2nsnc12)N1CCN(c2ccccc2)CC1 (stereo unspecified) | > 120 µM (not active) | > 120 µM (not active) | > 120 µM (not active) | – | – | –
CC(Sc1nnc(NCc2ccccc2)s1)C(=O)Nc1ccc2c(c1)C(=O)c1ccccc1C2=O (stereo unspecified) | 14.1 µM (active) | 9.18 µM (active) | 49.2 µM (active) | – | – | –
COc1ccc(S(=O)(=O)N2CCOC2CNC(=O)C(=O)NCCc2ccccc2)cc1C (stereo unspecified) | – | – | – | > 47.1 µM (inactive) | > 53 µM (inactive) | –
Cc1cc2nnc(SCC(=O)NCc3ccco3)n2c2ccccc12 | > 120 µM (not active) | 5.13 µM (active) | > 120 µM (not active) | – | – | AC50 [6]: 2.9 µM (active)
O=C1c2ccccc2NC(c2ccccc2Cl)N1N=C1CCCCCC1 (stereo unspecified) | 18.9 µM (active) | 11.9 µM (active) | 0.493 µM (active) | – | – | –
CN1C(=O)C(O)(C2COC(C)(C)CC2=O)c2cc(Br)ccc21 (stereo unspecified) | – | – | – | > 47.1 µM (inactive) | > 53 µM (inactive) | –
c1ccc(CN2CCC(Nc3nc(-c4cccnc4)nc4ccccc34)CC2)cc1 | 13 µM (active) | > 120 µM (not active) | 104 µM (active) | – | – | EC50 [7]: 1.34 µM (active); EC50 [8]: 8.99 µM (active)
CCOc1cc(/C=C2\SC(=S)N(Nc3ccccc3)C2=O)ccc1O | 8.87 µM (active) | 9.91 µM (active) | 22.6 µM (active) | – | – | –
CCOC(=O)N1CCN(Cc2nc3c(c(=O)n(C)c(=O)n3C)n2CCC(C)C)CC1 | – | – | – | > 47.1 µM (inactive) | > 53 µM (inactive) | –
CCOC(=O)c1cc(C#N)c(Oc2ccccc2OC)nc1-c1ccccc1 | – | – | – | > 47.1 µM (inactive) | > 53 µM (inactive) | AC50 [9]: 11.2 µM (inconclusive)
O=c1c2ccccc2nnn1-c1ccc(Br)cc1 | 0.157 µM (active) | 0.1 µM (active) | 19 µM (active) | – | – | –
COc1ccc(C(CC(=O)Nc2ccc(F)cc2)c2ccccc2)cc1 (stereo unspecified) | – | – | – | 24.3 µM (active) | > 53 µM (inactive) | –
COc1ccc(C2=NN(C(C#N)c3ccc(OC)cc3)C(c3ccccc3)C2)cc1 (stereo unspecified) | 5.24 µM (active) | 8.15 µM (active) | > 120 µM (not active) | – | – | –
Cc1cc(C(=O)N2CCN(c3cccc(Cl)c3)CC2)c(C)o1 | > 120 µM (not active) | 20.8 µM (active) | > 120 µM (not active) | – | – | –
COc1cc(C=O)ccc1OCCOCCOc1ccc(Cl)cc1Cl | – | – | – | > 47.1 µM (inactive) | > 53 µM (inactive) | –
Cc1nc2ccc(NC(=O)c3cccc(S(=O)(=O)N4CCOCC4)c3)cc2s1 | – | – | – | > 47.1 µM (inactive) | > 53 µM (inactive) | –
Cc1cccn2c(=O)c(/C=N/c3ccccc3)c(NCc3ccco3)nc12 | > 120 µM (not active) | > 120 µM (not active) | > 120 µM (not active) | – | – | –
